Reference: the supplement of paper PMC10627819

Experiments:
S. pneumoniae D39V [1] = test: Bliss interaction score (quartile over a dose matrix) (fitness difference); higher = more antagonism (negative = synergy)
Method in brief: (§1)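 Each OD595 reading at entry into stationary phase was scaled to the robust mean of the untreated wells on its plate, with a ceiling of 1. These ratios define fitness, and single-drug fitness was inferred from combinations. The Bliss score compares observed fitness with the product-based expectation and is reported as quartiles across all replicate types, technical, biological and donor/recipient.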

S. aureus Newman [2] = test: as above
Method in brief: as §1

S. aureus DSM 20231 [3] = test: as above
Method in brief: as §1

B. subtilis 168 = test: as above
Method in brief: as §1

S. pneumoniae D39V [4] = test: fitness (endpoint OD595 vs no drug) (fraction); higher = more growth
Method in brief: (§2)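 Fitness compares growth at the stationary-phase transition with the robust mean of no-drug control wells, as a ratio of optical densities. The ratio is capped at 1. Wells of 384-well plates held 30 µl, or 55 µl for S. pneumoniae, inoculated at OD595 0.01. Readings at OD595 every 30 min for 14 h at 37 °C were corrected against the first reading.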

S. aureus Newman [5] = test: as above
Method in brief: as §2

S. aureus DSM 20231 [6] = test: as above
Method in brief: as §2
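For Bliss interaction score (quartile over a dose matrix) in this document: first quartile when negative (synergy) and third quartile when positive (antagonism).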
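For fitness (endpoint OD595 vs no drug) in this document: OD595 on entry to stationary phase over no-drug wells; at most 1.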

CO/N=C(\C(=O)N[C@@H]1C(=O)N2C(C(=O)[O-])=C(C[N+]3(C)CCCC3)CS[C@H]12)c1csc(N)n1 [Cefepime] + Cc1onc(-c2ccccc2)c1C(=O)N[C@@H]1C(=O)N2[C@@H]1SC(C)(C)[C@@H]2C(=O)O [Oxacillin]
Conditions | Bliss interaction score
B. subtilis 168 | -0.0609
S. aureus DSM 20231 [3] | -0.054
S. aureus Newman [2] | 0.11
S. pneumoniae D39V [1] | -0.138

Conditions | fitness
S. aureus DSM 20231 [6], first compound 0.125 µg/mL, partner 0.0156 µg/mL | 0.75
S. aureus DSM 20231 [6], first compound 0.125 µg/mL, partner 0.0312 µg/mL | 0.641
S. aureus DSM 20231 [6], first compound 0.125 µg/mL, partner 0.0625 µg/mL | 0.507
S. aureus DSM 20231 [6], first compound 0.25 µg/mL, partner 0.0156 µg/mL | 0.826
S. aureus DSM 20231 [6], first compound 0.25 µg/mL, partner 0.0312 µg/mL | 0.634
S. aureus DSM 20231 [6], first compound 0.25 µg/mL, partner 0.0625 µg/mL | 0.578
S. aureus DSM 20231 [6], first compound 0.5 µg/mL, partner 0.0156 µg/mL | 0.624
S. aureus DSM 20231 [6], first compound 0.5 µg/mL, partner 0.0312 µg/mL | 0.565
S. aureus DSM 20231 [6], first compound 0.5 µg/mL, partner 0.0625 µg/mL | 0.53
S. aureus Newman [5], first compound 0.125 µg/mL, partner 0.0156 µg/mL | 0.828
S. aureus Newman [5], first compound 0.125 µg/mL, partner 0.0312 µg/mL | 0.796
S. aureus Newman [5], first compound 0.125 µg/mL, partner 0.0625 µg/mL | 0.71
S. aureus Newman [5], first compound 0.25 µg/mL, partner 0.0156 µg/mL | 0.804
S. aureus Newman [5], first compound 0.25 µg/mL, partner 0.0312 µg/mL | 0.753
S. aureus Newman [5], first compound 0.25 µg/mL, partner 0.0625 µg/mL | 0.682
S. aureus Newman [5], first compound 0.5 µg/mL, partner 0.0156 µg/mL | 0.768
S. aureus Newman [5], first compound 0.5 µg/mL, partner 0.0312 µg/mL | 0.684
S. aureus Newman [5], first compound 0.5 µg/mL, partner 0.0625 µg/mL | 0.667
S. pneumoniae D39V [4], first compound 0.007 µg/mL, partner 0.005 µg/mL | 0.997
S. pneumoniae D39V [4], first compound 0.007 µg/mL, partner 0.01 µg/mL | ≥ 1
S. pneumoniae D39V [4], first compound 0.007 µg/mL, partner 0.02 µg/mL | 0.986
S. pneumoniae D39V [4], first compound 0.0078 µg/mL, partner 0.01 µg/mL | 0.95
S. pneumoniae D39V [4], first compound 0.0078 µg/mL, partner 0.02 µg/mL | 0.825
S. pneumoniae D39V [4], first compound 0.0078 µg/mL, partner 0.04 µg/mL | 0.254
S. pneumoniae D39V [4], first compound 0.014 µg/mL, partner 0.005 µg/mL | ≥ 1
S. pneumoniae D39V [4], first compound 0.014 µg/mL, partner 0.01 µg/mL | ≥ 1
S. pneumoniae D39V [4], first compound 0.014 µg/mL, partner 0.02 µg/mL | 1
S. pneumoniae D39V [4], first compound 0.0155 µg/mL, partner 0.01 µg/mL | 0.86
S. pneumoniae D39V [4], first compound 0.0155 µg/mL, partner 0.04 µg/mL | 0.153
S. pneumoniae D39V [4], first compound 0.028 µg/mL, partner 0.005 µg/mL | 0.955
S. pneumoniae D39V [4], first compound 0.028 µg/mL, partner 0.01 µg/mL | 0.942
S. pneumoniae D39V [4], first compound 0.028 µg/mL, partner 0.02 µg/mL | 0.847
S. pneumoniae D39V [4], first compound 0.031 µg/mL, partner 0.04 µg/mL | 0.0453

CO/N=C(\C(=O)N[C@@H]1C(=O)N2C(C(=O)[O-])=C(C[N+]3(C)CCCC3)CS[C@H]12)c1csc(N)n1 [Cefepime] + Cn1nnc(-c2ccc(-c3ccc(N4C[C@H](CO)OC4=O)cc3F)cn2)n1 [Tedizolid]
Conditions | Bliss interaction score
B. subtilis 168 | 0.12
S. aureus DSM 20231 [3] | 0.122
S. aureus Newman [2] | -0.0634
S. pneumoniae D39V [1] | 0.237

fitness
Conditions | partner 0.03125 µg/mL | partner 0.0625 µg/mL | partner 0.125 µg/mL | partner 0.25 µg/mL | partner 0.5 µg/mL
S. aureus DSM 20231 [6], first compound 0.125 µg/mL | – | 0.879 | 0.804 | 0.692 | –
S. aureus DSM 20231 [6], first compound 0.25 µg/mL | – | 0.796 | 0.738 | 0.601 | –
S. aureus DSM 20231 [6], first compound 0.5 µg/mL | – | 0.844 | 0.797 | 0.69 | –
S. aureus Newman [5], first compound 0.125 µg/mL | – | 0.858 | 0.837 | – | –
S. aureus Newman [5], first compound 0.25 µg/mL | – | 0.81 | 0.773 | – | –
S. aureus Newman [5], first compound 0.5 µg/mL | – | 0.728 | 0.717 | – | –
S. pneumoniae D39V [4], first compound 0.007 µg/mL | – | – | 0.953 | 0.642 | 0.129
S. pneumoniae D39V [4], first compound 0.0078 µg/mL | 0.986 | 0.983 | 0.879 | – | –
S. pneumoniae D39V [4], first compound 0.014 µg/mL | – | – | 0.95 | 0.626 | 0.149
S. pneumoniae D39V [4], first compound 0.0155 µg/mL | 0.969 | 0.974 | 0.895 | – | –
S. pneumoniae D39V [4], first compound 0.028 µg/mL | – | – | 0.937 | 0.652 | 0.105
S. pneumoniae D39V [4], first compound 0.031 µg/mL | 0.971 | 0.948 | 0.888 | – | –
